From patent US8114843B2, “Photoreactive regulator of protein function and methods of use thereof” (The Regents of the University of California, priority 2005, dated 2012) come the findings set out here.

In test [1] the test system is voltage-gated outward current (endogenous K+ channels) in cultured hippocampal neurons. Put plainly: Photocontrol of K+ current in cultured hippocampal neurons. Type of test: cell-based, rat. The conditions noted are these: 200 μM, 15 min in the dark. The procedure: Hippocampal neurons were prepared from neonatal Sprague-Dawley rats according to standard procedures (Goslin) and grown on poly-L-lysine coated coverslips in MEM supplemented with 5% fetal bovine serum, B27 (Invitrogen), glutamine and serum extender (BD Biosciences). Animal care and experimental protocols were approved by the UC Berkeley Animal Care and Use Committee. Recordings were performed 9-16 days after plating. The Shaker construct also contains an N-terminal deletion (Δ6-46) to minimize fast inactivation.
(§1) PAL attachment. HEK293 and hippocampal cells were rinsed in extracellular solution containing in mM: 138 NaCl, 1.5 KCl, 1.2 MgCl2, 2.5 CaCl2, 5 HEPES, 10 glucose and incubated at 37° C. in the dark with 200-250 μM PAL for 15 minutes. For slices, AAQ was diluted to 200 μM in aCSF and treatment was performed in the dark at room temperature for 10 minutes.
Electrophysiological recording. Recordings from HEK293 and hippocampal neurons were made in the whole-cell patch clamp configuration using a PC-501A amplifier (Warner Instruments). Pulse protocols and measurements were carried out with pCLAMP and a Digidata 1322 interface (Axon Instruments). For voltage-clamp experiment, cells were held at −70 mV. Data was recorded at 20 kHz and filtered at 2 kHz. […]

A further test has as its target T1, Kv2.1 (Homo sapiens, UniProt Q14721).
T1 construct: expressed in transfected cells; host or cells: HEK cells
T1 sequence (Q14721 1-858): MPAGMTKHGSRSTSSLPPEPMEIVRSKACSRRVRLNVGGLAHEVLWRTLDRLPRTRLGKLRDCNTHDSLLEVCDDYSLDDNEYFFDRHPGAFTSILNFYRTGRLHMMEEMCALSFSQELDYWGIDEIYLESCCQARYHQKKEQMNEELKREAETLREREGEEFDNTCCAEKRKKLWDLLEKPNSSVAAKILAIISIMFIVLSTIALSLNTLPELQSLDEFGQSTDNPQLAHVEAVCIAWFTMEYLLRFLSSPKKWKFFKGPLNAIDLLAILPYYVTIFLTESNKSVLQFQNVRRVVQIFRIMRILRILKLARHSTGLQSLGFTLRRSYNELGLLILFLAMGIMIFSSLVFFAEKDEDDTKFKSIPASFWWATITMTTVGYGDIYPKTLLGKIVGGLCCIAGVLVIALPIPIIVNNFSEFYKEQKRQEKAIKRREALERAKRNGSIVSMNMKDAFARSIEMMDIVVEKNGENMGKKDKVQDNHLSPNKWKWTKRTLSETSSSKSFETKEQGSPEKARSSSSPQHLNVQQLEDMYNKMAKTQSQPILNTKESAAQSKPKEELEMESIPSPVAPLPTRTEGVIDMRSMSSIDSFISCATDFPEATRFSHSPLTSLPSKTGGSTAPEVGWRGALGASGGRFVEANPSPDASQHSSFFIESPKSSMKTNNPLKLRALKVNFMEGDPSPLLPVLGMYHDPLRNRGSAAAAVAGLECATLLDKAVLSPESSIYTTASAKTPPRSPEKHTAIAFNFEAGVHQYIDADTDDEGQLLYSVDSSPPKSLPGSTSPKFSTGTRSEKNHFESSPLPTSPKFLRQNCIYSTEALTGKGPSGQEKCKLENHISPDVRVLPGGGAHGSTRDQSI
The test can be described thus: PAL photoswitching, whole-cell patch clamp in HEK cells. The format is cell-based. Here is the method:
(§2) Cell culture and transfection. HEK293 cells were grown in DMEM containing 5% fetal bovine serum, at 37° C., 7% CO2. For electrophysiology, cells were plated at 12×10^5 cells/cm^2 on poly-L-lysine coated coverslips and transfected using the calcium phosphate method. Recordings were performed 24-36 hours after transfection.
as §1
(§3) Electrophysiological recording. Recordings from HEK293 and hippocampal neurons were made in the whole-cell patch clamp configuration using a PC-501A amplifier (Warner Instruments). Pulse protocols and measurements were carried out with pCLAMP and a Digidata 1322 interface (Axon Instruments). For voltage-clamp experiment, cells were held at −70 mV. Data was recorded at 20 kHz and filtered at 2 kHz. Recording pipettes with 2.5-4 MΩ resistance were filled with intracellular solution containing in mM: 10 NaCl, 135 K-gluconate, 10 HEPES, 2 MgCl2, 2 MgATP, 1 EGTA, pH 7.4.
(§4) Illumination was provided using a xenon lamp (Sutter Instruments) with narrow band pass filters (380 BP10 for UV and 500 BP5 for visible light respectively). Excitation filters were changed using a lambda 10-2 filter changer (Sutter Instruments) controlled via pCLAMP software.
(§5) Percent photoswitching was defined as the difference between current in UV and visible light divided by current in UV. All data shown in bar graphs are averages±standard error of the mean.

The next test concerns the target T2, Kv4.2 (Homo sapiens, UniProt Q9NZV8).
T2 construct: expressed in transfected cells; host or cells: HEK cells
T2 sequence (Q9NZV8 1-630): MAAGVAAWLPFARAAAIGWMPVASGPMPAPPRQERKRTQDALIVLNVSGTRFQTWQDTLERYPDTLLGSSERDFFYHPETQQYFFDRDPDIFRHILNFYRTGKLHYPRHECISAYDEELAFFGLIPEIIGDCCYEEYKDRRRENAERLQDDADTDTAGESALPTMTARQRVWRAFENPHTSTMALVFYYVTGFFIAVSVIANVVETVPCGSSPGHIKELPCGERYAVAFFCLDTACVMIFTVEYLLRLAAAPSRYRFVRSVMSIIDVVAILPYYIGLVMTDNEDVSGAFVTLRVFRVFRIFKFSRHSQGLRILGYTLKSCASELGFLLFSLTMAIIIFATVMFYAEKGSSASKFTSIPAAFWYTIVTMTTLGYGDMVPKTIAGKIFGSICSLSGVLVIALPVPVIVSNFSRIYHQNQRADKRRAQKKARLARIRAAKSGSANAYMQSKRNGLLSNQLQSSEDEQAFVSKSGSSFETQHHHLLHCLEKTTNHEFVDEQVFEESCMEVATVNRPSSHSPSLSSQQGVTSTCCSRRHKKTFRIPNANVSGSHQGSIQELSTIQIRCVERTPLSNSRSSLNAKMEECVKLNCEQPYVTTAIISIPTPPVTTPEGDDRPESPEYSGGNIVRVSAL
Described as above. Type of test: cell-based. Particulars: n=6. The procedure:
as §2, §1, §3, §4, §5

Test [2] has as its target T3, Shaker channel with engineered cysteine (E422C) (Drosophila melanogaster, UniProt P08510, DEL6-46/E422C).
T3 construct: expressed in transfected cells; host or cells: HEK293
The test can be described thus: PAL photoswitching, whole-cell patch clamp in HEK293 cells. The format is cell-based. The conditions noted are these: n=6. The procedure:
as §2, §1, §3, §4, §5

The target of another test is T4, wild-type Shaker (E422) (Drosophila melanogaster, UniProt P08510, DEL6-46).
T4 construct: expressed in transfected cells; host or cells: HEK293
T4 sequence (P08510 other isoform, or with tags, fused parts or gaps DEL6-46): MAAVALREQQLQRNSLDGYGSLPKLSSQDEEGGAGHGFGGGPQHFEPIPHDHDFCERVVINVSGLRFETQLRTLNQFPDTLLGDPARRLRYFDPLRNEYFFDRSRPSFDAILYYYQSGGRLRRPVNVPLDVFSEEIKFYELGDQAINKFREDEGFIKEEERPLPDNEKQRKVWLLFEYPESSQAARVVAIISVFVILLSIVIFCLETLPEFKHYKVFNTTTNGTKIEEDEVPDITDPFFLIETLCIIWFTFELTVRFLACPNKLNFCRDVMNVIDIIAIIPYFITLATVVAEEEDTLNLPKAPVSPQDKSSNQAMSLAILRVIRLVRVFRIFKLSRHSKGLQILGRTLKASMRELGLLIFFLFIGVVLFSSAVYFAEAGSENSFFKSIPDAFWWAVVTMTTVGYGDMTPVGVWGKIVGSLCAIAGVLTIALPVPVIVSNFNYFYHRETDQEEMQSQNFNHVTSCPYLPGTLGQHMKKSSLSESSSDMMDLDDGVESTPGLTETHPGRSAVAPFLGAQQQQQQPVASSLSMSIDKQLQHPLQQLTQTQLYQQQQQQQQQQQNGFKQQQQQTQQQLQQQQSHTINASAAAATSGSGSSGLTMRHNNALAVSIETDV
The description is as above. Type of test: cell-based. The conditions noted are these: n=6. Here is the method: as §2, §1, §3, §4, §5

T3 sequence (P08510 other isoform, or with tags, fused parts or gaps DEL6-46/E422C): as the sequence (P08510 other isoform, or with tags, fused parts or gaps DEL6-46) above, with E381C counted along it

`C=CC(=O)Nc1ccc(/N=N/c2ccc(NC(=O)C[N+](CC)(CC)CC)cc2)cc1` [AAQ]: in test [1], the “percent of the outward current that could be photoswitched” value turned out to be 63±8%. Besides, at Kv2.1, the “light-sensitivity imparted on channel” value is on record as “imparted light-sensitivity”. For the same molecule, the “current turned on and off by light” value at Kv4.2 is listed as ~80%. For the same molecule, the “fraction of current that could be photoswitched” value in test [2] was 39±1%; on wild-type Shaker (E422), 48±2%.
